Measured values: ChEMBL document CHEMBL1201862, “PubChem BioAssay data set” (2004)
Active and inactive are the calls of the source. Unless noted, the calls are words filed in the database; no cut-off is given here.

Experiments:
[1] = target: T1, Tyrosine-protein phosphatase non-receptor type 7 (Homo sapiens, UniProt P35236); assay: inhibitors of human HePTP phosphatase, […], biochemical, absorbance, leukemia target (AID 521); format: functional
T1 sequence (P35236 whole entry): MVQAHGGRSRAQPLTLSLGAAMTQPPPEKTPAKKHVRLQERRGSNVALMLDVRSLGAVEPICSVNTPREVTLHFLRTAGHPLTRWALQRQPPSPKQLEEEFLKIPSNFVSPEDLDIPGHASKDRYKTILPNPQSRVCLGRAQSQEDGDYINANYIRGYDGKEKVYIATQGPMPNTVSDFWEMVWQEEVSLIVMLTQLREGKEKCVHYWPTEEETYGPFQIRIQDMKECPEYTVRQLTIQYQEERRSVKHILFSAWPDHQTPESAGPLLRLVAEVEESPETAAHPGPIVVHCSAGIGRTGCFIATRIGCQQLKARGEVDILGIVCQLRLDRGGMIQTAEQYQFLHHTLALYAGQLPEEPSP

[2] = target: Metabotropic glutamate receptor 2 (Homo sapiens, UniProt Q14416); assay: mGlu2 agonist response modulation at 10 µM, profiling panel, selectivity assay for mGlu8/mGlu7 PAM project, cell-based, GIRK thallium flux, agonist curve fold shift (AID 743433); format: functional
[3] = target: Metabotropic glutamate receptor 5 (Homo sapiens, UniProt P41594); assay: mGlu5 glutamate response modulation at 10 µM, profiling panel, selectivity assay for mGlu8/mGlu7 PAM project, cell-based, calcium fluorescence, glutamate curve fold shift (AID 743419); format: functional
[4] = target: Metabotropic glutamate receptor 3 (Homo sapiens, UniProt Q14832); assay: Selectivity Studies of mglur8 probe at mglur3.; format: functional
Chain of Metabotropic glutamate receptor 3 (Q14832 whole entry): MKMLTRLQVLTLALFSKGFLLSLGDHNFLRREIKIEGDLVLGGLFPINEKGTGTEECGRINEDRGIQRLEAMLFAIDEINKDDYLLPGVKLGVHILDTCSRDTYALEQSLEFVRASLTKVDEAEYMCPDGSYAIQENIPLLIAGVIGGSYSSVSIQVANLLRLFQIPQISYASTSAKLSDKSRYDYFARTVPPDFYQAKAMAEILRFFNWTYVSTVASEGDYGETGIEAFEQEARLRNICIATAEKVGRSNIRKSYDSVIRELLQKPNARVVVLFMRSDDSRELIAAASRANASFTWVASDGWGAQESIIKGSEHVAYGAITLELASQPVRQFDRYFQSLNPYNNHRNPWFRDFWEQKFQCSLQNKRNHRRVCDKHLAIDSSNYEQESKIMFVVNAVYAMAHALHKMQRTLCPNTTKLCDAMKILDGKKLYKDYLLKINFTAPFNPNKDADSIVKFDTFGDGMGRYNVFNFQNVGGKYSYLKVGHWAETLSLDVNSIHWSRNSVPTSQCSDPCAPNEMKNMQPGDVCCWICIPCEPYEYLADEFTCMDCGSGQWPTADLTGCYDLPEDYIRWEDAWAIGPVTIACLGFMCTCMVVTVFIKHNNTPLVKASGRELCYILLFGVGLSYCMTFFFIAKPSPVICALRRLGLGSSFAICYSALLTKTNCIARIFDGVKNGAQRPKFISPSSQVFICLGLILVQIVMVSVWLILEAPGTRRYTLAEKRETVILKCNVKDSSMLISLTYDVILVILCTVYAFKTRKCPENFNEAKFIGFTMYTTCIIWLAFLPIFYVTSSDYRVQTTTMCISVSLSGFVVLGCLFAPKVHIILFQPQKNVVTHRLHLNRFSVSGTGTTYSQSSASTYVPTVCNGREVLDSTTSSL

[5] = target: T2, Metabotropic glutamate receptor 4 (Homo sapiens, UniProt Q14833); assay: Fold shift mGlu4, mGlu7, mGlu8 using calcium mobilization.; format: functional
T2 sequence (Q14833 whole entry): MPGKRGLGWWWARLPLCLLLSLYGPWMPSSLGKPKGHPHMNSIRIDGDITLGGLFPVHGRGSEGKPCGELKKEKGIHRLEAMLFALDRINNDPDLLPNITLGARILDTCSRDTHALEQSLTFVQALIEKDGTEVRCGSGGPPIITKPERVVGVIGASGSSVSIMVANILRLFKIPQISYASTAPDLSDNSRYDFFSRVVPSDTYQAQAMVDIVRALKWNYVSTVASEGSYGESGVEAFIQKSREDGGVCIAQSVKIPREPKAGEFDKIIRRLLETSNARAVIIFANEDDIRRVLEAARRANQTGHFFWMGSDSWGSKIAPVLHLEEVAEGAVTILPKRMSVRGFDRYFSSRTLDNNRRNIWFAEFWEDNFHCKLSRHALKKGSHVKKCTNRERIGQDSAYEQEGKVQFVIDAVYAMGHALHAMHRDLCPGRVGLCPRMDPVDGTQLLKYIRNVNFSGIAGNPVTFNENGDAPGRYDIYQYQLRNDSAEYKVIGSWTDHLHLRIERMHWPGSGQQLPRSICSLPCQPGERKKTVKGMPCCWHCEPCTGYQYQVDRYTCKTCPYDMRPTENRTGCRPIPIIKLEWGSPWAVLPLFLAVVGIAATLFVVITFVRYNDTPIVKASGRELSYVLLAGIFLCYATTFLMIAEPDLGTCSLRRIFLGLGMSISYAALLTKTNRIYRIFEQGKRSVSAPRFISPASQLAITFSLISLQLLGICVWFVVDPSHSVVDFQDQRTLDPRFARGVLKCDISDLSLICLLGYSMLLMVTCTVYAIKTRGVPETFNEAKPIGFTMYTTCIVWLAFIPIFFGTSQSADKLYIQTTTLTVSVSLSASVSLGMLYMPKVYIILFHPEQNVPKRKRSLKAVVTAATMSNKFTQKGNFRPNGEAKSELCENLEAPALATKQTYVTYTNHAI

[6] = target: Metabotropic glutamate receptor 6 (Homo sapiens, UniProt O15303); assay: mGlu6 agonist response modulation at 10 µM, profiling panel, selectivity assay for mGlu8/mGlu7 PAM project, cell-based, GIRK thallium flux, agonist curve fold shift (AID 743421); format: functional
[7] = target: T3, Metabotropic glutamate receptor 7 (Homo sapiens, UniProt Q14831); assay: Fold shift mGlu7 using calcium mobilization.; format: functional
T3 sequence (Q14831 whole entry): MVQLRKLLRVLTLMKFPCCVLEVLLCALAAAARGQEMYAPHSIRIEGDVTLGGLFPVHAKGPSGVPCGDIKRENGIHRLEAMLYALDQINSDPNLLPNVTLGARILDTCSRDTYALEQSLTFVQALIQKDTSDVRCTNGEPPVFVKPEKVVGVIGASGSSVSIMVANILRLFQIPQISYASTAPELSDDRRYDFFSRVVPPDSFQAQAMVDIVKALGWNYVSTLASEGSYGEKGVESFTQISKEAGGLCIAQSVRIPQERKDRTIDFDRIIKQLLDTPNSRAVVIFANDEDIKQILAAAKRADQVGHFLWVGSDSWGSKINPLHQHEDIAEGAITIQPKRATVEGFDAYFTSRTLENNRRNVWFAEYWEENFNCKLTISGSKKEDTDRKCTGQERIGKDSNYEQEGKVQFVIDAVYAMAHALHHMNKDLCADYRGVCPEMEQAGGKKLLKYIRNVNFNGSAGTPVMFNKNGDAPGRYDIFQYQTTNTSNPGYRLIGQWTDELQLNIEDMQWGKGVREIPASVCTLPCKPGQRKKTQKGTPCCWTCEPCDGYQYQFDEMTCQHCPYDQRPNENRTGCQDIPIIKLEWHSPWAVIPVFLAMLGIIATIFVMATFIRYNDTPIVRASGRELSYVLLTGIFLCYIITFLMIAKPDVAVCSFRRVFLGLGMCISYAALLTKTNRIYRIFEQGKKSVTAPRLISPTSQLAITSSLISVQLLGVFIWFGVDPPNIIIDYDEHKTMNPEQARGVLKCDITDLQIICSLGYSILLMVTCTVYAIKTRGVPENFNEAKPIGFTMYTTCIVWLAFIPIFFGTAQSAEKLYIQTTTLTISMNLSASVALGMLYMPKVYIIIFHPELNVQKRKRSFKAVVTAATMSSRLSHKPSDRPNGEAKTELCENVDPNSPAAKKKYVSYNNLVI

[8] = target: Metabotropic glutamate receptor 8 (Homo sapiens, UniProt O00222); assay: Fold shift mGlu8 using GIRK assay.; format: functional
Chain of Metabotropic glutamate receptor 8 (O00222 whole entry): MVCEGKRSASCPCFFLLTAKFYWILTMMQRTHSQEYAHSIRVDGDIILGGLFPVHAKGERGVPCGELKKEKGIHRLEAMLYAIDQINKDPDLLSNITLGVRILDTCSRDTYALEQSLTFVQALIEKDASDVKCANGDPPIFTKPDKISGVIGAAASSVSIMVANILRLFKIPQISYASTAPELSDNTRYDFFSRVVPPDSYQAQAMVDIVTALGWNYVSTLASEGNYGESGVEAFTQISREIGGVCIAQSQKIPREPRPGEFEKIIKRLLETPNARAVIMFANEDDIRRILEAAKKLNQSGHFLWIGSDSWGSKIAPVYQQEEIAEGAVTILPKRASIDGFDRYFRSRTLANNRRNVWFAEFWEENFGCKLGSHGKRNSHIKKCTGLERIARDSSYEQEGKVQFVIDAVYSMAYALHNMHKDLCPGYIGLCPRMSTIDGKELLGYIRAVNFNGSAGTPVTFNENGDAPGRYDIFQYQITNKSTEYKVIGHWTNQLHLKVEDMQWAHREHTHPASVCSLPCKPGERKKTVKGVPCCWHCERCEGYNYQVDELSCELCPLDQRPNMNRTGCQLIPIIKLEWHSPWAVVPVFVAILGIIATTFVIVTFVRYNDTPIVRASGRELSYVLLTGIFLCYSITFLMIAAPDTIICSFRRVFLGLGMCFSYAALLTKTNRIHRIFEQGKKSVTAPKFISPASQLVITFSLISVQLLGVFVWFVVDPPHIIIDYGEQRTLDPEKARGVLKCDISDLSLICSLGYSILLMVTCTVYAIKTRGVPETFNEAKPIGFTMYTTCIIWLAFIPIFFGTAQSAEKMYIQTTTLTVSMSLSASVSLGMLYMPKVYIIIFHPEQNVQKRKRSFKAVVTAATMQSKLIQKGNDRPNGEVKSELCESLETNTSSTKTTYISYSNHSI

[9] = target: T3, Metabotropic glutamate receptor 7; assay: glutamate curve shift by mGlu7 potentiators, cell-based, rat, GIRK per title (AID 743386); format: functional
[10] = target: T2, Metabotropic glutamate receptor 4; assay: agonist response potentiation at mGlu4 receptor – cell-based, GIRK thallium flux, mechanism study for group III mGlu PAM project, late-stage follow-up (AID 743466); format: functional
[11] = target: E3 ubiquitin-protein ligase Mdm2 (Homo sapiens, UniProt Q00987); assay: enhancers of MDM2-luciferase reporter signal, concentration-effect titration, project on inhibitors of MDM2 ubiquitin ligase, cellular assay, luminescent readout, 384-well plate format (AID 1394); format: functional;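 further: MDM2 E3 inhibitors raise luminescence so EC50 is for signal enhancement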
Chain of E3 ubiquitin-protein ligase Mdm2 (Q00987 whole entry): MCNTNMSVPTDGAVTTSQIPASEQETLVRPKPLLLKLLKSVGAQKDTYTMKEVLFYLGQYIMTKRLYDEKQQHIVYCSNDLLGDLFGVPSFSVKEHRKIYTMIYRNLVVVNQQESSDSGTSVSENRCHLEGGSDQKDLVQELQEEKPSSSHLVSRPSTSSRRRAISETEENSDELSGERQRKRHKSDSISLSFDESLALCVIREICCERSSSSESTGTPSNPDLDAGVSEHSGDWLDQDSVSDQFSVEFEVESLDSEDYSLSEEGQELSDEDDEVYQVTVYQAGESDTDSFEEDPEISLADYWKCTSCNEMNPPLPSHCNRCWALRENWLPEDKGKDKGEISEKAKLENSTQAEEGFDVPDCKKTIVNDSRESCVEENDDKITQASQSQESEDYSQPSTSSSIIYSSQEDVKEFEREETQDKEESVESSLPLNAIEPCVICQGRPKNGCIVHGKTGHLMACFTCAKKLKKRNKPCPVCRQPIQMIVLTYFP

[12] = target: G-protein coupled receptor 55 (Homo sapiens, UniProt Q9Y2T6); assay: GPR55 antagonists blocking LPI-driven arrestin recruitment, primary screen, imaging, U2OS, beta-arrestin-GFP, LPI agonist (AID 2013); format: functional;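 further: antagonist potency measured as reduced agonist-driven arrestin aggregation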
[13] = target: T4, Replicative DNA helicase DnaB (Mycobacterium tuberculosis, UniProt P9WMR3); assay: DnaB intein splicing inhibitors, dose response, biochemical, cell-free fluorescence (AID 449749); format: functional
T4 sequence (P9WMR3 whole entry): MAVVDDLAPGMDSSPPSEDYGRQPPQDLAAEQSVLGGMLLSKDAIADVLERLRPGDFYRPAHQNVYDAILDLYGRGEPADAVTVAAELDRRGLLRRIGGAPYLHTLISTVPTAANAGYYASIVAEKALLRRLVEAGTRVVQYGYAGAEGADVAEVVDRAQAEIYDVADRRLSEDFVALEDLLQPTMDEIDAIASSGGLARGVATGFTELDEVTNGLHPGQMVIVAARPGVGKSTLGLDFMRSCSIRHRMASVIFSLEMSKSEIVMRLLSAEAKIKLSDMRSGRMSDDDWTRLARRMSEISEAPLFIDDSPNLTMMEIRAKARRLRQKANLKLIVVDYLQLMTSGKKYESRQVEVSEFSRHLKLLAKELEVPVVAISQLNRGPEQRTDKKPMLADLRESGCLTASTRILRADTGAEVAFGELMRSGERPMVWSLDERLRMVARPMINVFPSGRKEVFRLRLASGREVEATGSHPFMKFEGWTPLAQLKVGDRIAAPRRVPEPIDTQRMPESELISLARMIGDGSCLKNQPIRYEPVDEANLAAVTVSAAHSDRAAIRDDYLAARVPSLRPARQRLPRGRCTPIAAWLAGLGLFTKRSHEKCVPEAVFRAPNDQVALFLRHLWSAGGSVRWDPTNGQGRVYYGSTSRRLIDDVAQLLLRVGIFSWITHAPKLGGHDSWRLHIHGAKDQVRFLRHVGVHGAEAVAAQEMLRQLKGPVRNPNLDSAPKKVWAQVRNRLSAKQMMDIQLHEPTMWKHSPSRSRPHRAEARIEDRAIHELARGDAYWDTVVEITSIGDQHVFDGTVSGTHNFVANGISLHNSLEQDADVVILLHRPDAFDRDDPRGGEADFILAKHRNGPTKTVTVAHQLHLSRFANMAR

Protein RecA = target: T5, Protein RecA (Mycobacterium tuberculosis, UniProt P9WHJ3); assay: Fluorescence Cell-Free Homogeneous Dose Retest to Identify Inhibitors of RecA-Intein Splicing Activity. [Related pubchem assays (depositor defined):AID2097, AID2223, AID489010, AID492950]; format: functional
T5 sequence (P9WHJ3 whole entry): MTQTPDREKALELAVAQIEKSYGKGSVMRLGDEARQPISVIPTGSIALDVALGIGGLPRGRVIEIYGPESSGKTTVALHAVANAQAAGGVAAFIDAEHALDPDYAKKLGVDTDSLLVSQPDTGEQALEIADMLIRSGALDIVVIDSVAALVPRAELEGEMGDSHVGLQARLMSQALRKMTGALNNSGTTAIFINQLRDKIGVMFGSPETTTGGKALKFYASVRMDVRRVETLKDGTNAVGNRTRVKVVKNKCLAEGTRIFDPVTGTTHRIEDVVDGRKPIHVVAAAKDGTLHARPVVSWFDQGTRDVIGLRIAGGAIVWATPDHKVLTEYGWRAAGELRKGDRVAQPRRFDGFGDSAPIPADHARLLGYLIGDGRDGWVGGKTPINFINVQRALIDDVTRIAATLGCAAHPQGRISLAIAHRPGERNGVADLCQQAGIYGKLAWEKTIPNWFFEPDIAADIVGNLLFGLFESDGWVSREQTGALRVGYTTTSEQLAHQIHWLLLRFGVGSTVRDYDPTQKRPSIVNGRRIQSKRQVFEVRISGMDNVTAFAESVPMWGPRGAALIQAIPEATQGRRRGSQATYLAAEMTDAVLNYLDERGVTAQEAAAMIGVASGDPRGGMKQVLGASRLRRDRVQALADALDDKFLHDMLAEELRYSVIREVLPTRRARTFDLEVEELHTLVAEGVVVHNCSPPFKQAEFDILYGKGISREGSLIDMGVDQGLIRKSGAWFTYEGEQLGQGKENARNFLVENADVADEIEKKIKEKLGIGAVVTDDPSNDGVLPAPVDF

[14] = target: Mitogen-activated protein kinase 10 (Homo sapiens, UniProt P53779); assay: Dose response biochemical screening assay for inhibitors of c-Jun N-Terminal Kinase 3 (JNK3). [Related pubchem assays: 746 ]
Chain of Mitogen-activated protein kinase 10 (P53779 whole entry): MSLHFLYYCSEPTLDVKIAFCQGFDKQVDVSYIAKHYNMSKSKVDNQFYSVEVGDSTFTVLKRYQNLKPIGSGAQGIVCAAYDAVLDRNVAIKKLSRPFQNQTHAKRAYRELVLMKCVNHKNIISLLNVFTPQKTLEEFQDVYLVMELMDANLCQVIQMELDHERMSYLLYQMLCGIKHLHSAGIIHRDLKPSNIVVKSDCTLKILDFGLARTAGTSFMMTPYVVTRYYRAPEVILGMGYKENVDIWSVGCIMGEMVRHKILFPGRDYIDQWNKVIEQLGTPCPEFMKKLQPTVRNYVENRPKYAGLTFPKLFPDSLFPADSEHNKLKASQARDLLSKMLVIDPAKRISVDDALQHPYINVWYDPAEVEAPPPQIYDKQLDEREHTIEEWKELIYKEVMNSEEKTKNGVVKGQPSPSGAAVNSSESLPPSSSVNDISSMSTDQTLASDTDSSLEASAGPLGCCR

[15] = target: Protein-tyrosine kinase 2-beta (Homo sapiens, UniProt Q14289);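 further: potency of inhibitors of PYK2 kinase phosphorylation of poly-GT substrate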
[16] = A549 cell cytotoxicity, dose response, cytotoxicity control, plate reader, dry powder, set 6 (AID 743312); format: functional, cell-based
cells = conditions: HEK293
[17] = target: G-protein coupled receptor 183 (Homo sapiens, UniProt P32249); assay: SAR confirmation of small molecule antagonists of the EBI2 receptor via a luminescent beta-arrestin assa.; format: functional
Chain of G-protein coupled receptor 183 (P32249 whole entry): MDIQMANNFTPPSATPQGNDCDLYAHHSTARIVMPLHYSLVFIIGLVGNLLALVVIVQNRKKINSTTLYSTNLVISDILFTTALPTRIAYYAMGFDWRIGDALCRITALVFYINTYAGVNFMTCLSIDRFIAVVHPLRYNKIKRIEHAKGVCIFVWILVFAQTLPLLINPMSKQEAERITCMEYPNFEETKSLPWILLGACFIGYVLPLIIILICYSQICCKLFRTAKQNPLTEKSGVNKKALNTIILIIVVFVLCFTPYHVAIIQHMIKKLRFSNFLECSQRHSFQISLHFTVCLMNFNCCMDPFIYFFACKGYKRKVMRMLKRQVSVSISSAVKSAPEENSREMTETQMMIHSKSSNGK

Cc1cnn(C(=S)NCc2ccc(Cl)cc2)c1
IC50 [1]: > 100 µM (not active)

COC(=O)c1ccc(-n2c(C)cc(C(=O)CSc3ccc(NC(C)=O)cc3)c2C)cc1
EC50 [2]: 0.37 µM (inactive) | EC50 [3]: 0.35 µM (inactive) | EC50 [4]: 0.18 µM (inactive) | EC50 [5]: 1.78 µM (active) | EC50 [6]: 0.39 µM (active) | EC50 [7]: 16.2 µM (active) | EC50 [8]: 0.73 µM | EC50 [9]: 28.4 µM (active) | EC50 [10]: 4.1 µM (inactive)

CN(C(=O)c1cccc(COc2ccc(Cl)cc2Cl)c1)c1ccccc1
EC50 [11]: 0.16 µM (active) | IC50 [12]: 2.2 µM (active) | AC50 [13]: 10.6 µM (active) | EC50 (Protein RecA): 7.59 µM (active)

COc1ccc(C(=O)NCc2nc3ccccc3[nH]2)cc1OC
IC50 [14]: 23.2 µM (not active)

O=C(OCCN=C1NS(=O)(=O)c2ccccc21)c1cccnc1
IC50 [15]: > 69.5 µM (not active)

Cc1cccc(OCCn2c(=S)[nH]c3ccc(C(F)(F)F)cc32)c1
AC50 [16]: 15.6 µM (active) | AC50 (cells): 35.9 µM (active)

O=C(/C=C/c1ccc(Br)cc1)N1CCN(Cc2cc(F)cc(F)c2)CC1
IC50 [17]: 0.00221 µM (active)
